From PubChem BioAssay AID192 (DTP/NCI, 2004)
Where “and” joins values, the source holds several entries; their conditions need not be identical. Equal values may be shown once. Inconclusive results and toxic doses are left out. Square brackets hold non-standard residues; d marks the D form. Peptide text beside a SMILES is read from it. * marks the point of attachment. ξ: configuration not given here. ξAsp(βξ-Me) = CC(C(=O)O)C(N)C(=O)O; X4 = CC(N*)C1NC(=O)C2CCCCN2C1=O; ξAbu(3ξ-NH2) = CC(N)C(N)C(=O)O; X3 = CCC(C)CCC/C=C/CC(=O)*

Tested on: BDF1 mice, B16 melanoma ip, median survival T/C
Assay: NCI In Vivo Anticancer Drug Screen. Data for tumor model B16 Melanoma (intraperitoneal) in B6D2F1 (BDF1) mice
Conditions: endpoint: median survival time, higher = longer survival
How it was run: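 Read-out: survival or tumor size, given as treated/control ratio. Controls received vehicle only; animals bore transplantable tumors.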

[1] = dose: 50.0 mg/kg/injection, schedule: Q01DX009 (ip), vehicle: saline with Tween-80
[2] = dose: 100.0 mg/kg/injection, schedule: Q01DX009 (ip), vehicle: saline with Tween-80
[3] = dose: 12.5 mg/kg/injection, schedule: Q01DX009 (ip), vehicle: Klucel (hydroxypropylcellulose) (HPC)
[4] = dose: 50.0 mg/kg/injection, schedule: Q01DX009 (ip), vehicle: Klucel (hydroxypropylcellulose) (HPC)
[5] = dose: 100.0 mg/kg/injection, schedule: Q01DX009 (ip), vehicle: Klucel (hydroxypropylcellulose) (HPC)
[6] = dose: 50.0 mg/kg/injection, schedule: Q01DX009 (ip), vehicle: saline
[7] = dose: 100.0 mg/kg/injection, schedule: Q01DX009 (ip), vehicle: saline
[8] = dose: 25.0 mg/kg/injection, schedule: Q01DX009 (ip), vehicle: saline with Tween-80
[9] = dose: 200.0 mg/kg/injection, schedule: Q01DX009 (ip), vehicle: Klucel (hydroxypropylcellulose) (HPC)
[10] = dose: 200.0 mg/kg/injection, schedule: Q01DX009 (ip), vehicle: saline with Tween-80
[11] = dose: 0.25 mg/kg/injection, schedule: Q01DX009 (ip), vehicle: saline
[12] = dose: 0.5 mg/kg/injection, schedule: Q01DX009 (ip), vehicle: saline
[13] = dose: 1.0 mg/kg/injection, schedule: Q01DX009 (ip), vehicle: saline
[14] = dose: 2.0 mg/kg/injection, schedule: Q01DX009 (ip), vehicle: saline with Tween-80
[15] = dose: 2.0 mg/kg/injection, schedule: Q01DX009 (ip), vehicle: saline
[16] = dose: 4.0 mg/kg/injection, schedule: Q01DX009 (ip), vehicle: saline

SMILES: CCC(C)CCC/C=C/CC(=O)NC(CC(=O)O)C(=O)NC(C(=O)NC(CC(=O)O)C(=O)NCC(=O)NC(CC(=O)O)C(=O)NCC(=O)NC(C(=O)NC(C(=O)N1CCCC1C(=O)NC(C)C1NC(=O)C2CCCCN2C1=O)C(C)C)C(C)N)C(C)C(=O)O (stereo not drawn) (X3-D[ξAsp(βξ-Me)]DGDG[ξAbu(3ξ-NH2)]VP-X4; configuration not given here)
- T/C (dose: 100.0 mg/kg/injection, schedule: Q01DX009 (ip), vehicle: saline + alcohol): 90 % of control
- T/C (dose: 200.0 mg/kg/injection, schedule: Q01DX009 (ip), vehicle: saline + alcohol): 93 % of control

SMILES: Cc1ccc(C)c(C(O)C2CC2)c1 (stereo not given)
- T/C [1]: 104 % of control
- T/C [2]: 100 % of control

SMILES: CCC[CH2][Sn]1([CH2]CCC)[O]OC(c2ccc(C)cc2)[O]1 (stereo not given)
- T/C (dose: 0.38 mg/kg/injection, schedule: Q01DX009 (ip), vehicle: saline with Tween-80): 96 % of control
- T/C (dose: 0.75 mg/kg/injection, schedule: Q01DX009 (ip), vehicle: saline with Tween-80): 96 % of control
- T/C (dose: 1.5 mg/kg/injection, schedule: Q01DX009 (ip), vehicle: saline with Tween-80): 101 % of control
- T/C (dose: 3.13 mg/kg/injection, schedule: Q01DX009 (ip), vehicle: saline with Tween-80): 115 % of control

SMILES: CCOC(=O)C(=Cc1ccc(Cl)cc1)C(=O)OCC
- T/C [3]: 94 % of control
- T/C [4]: 94 % of control
- T/C [5]: 89 % of control

SMILES: CN(C)C1=NC(=O)C(c2ccccc2)O1 (stereo not given)
- T/C (dose: 12.5 mg/kg/injection, schedule: Q01DX009 (ip), vehicle: saline): 117 % of control
- T/C (dose: 25.0 mg/kg/injection, schedule: Q01DX009 (ip), vehicle: saline): 105 % of control
- T/C [6]: 111 % of control
- T/C [7]: 114 % of control

SMILES: Cc1ccc(Cl)cc1NC(=O)CCl
- T/C [8]: 102 % of control
- T/C [1]: 100 % of control
- T/C [2]: 102 % of control

SMILES: CC1CCN(c2ccc([N+](=O)[O-])cc2[N+](=O)[O-])CC1
- T/C [4]: 100 % of control
- T/C [5]: 100 % of control
- T/C [9]: 112 % of control

SMILES: O=C(CCN1CC1)Nc1cccc(NC(=O)CCN2CC2)c1
- T/C (dose: 2.5 mg/kg/injection, schedule: Q01DX009 (ip), vehicle: Klucel (hydroxypropylcellulose) (HPC)): 156 % of control
- T/C (dose: 5.0 mg/kg/injection, schedule: Q01DX009 (ip), vehicle: Klucel (hydroxypropylcellulose) (HPC)): 153 % of control and 173 % of control
- T/C (dose: 10.0 mg/kg/injection, schedule: Q01DX009 (ip), vehicle: Klucel (hydroxypropylcellulose) (HPC)): 211 % of control and 268 % of control

SMILES: CN(C)CCOc1ccccn1
- T/C [2]: 94 % of control
- T/C [10]: 97 % of control

SMILES: C/C(CCC(=O)O)=N\NC(N)=O
- T/C [2]: 88 % of control
- T/C [10]: 88 % of control
- T/C (dose: 400.0 mg/kg/injection, schedule: Q01DX009 (ip), vehicle: saline with Tween-80): 100 % of control

SMILES: CCCCN(CCCC)c1ccc(C(=O)O)cc1
- T/C [1]: 102 % of control
- T/C [2]: 94 % of control
- T/C [10]: 103 % of control

SMILES: CCCCn1cnc2c(=S)nc[nH]c21
- T/C (dose: 6.25 mg/kg/injection, schedule: Q01DX009 (ip), vehicle: saline with Tween-80): 93 % of control
- T/C (dose: 12.5 mg/kg/injection, schedule: Q01DX009 (ip), vehicle: saline with Tween-80): 89 % of control
- T/C [8]: 95 % of control
- T/C [1]: 97 % of control

SMILES: CCCCNC(=O)Nc1c(C)cccc1C
- T/C (dose: 100.0 mg/kg/injection, schedule: Q01DX009 (ip), vehicle: gum acacia): 95 % of control
- T/C (dose: 200.0 mg/kg/injection, schedule: Q01DX009 (ip), vehicle: gum acacia): 94 % of control

SMILES: CC(=O)OC1C2CCC(C2)C1C (stereo not given)
- T/C (dose: 100.0 mg/kg/injection, schedule: Q04DX003 (ip), vehicle: saline with Tween-80): 105 % of control
- T/C (dose: 200.0 mg/kg/injection, schedule: Q04DX003 (ip), vehicle: saline with Tween-80): 100 % of control
- T/C (dose: 400.0 mg/kg/injection, schedule: Q04DX003 (ip), vehicle: saline with Tween-80): 97 % of control

SMILES: CC(Cc1ccccc1)NC(C#N)c1ccccc1 (stereo not given)
- T/C (dose: 6.25 mg/kg/injection, schedule: Q01DX009 (ip), vehicle: Klucel (hydroxypropylcellulose) (HPC)): 100 % of control
- T/C [3]: 87 % of control
- T/C (dose: 25.0 mg/kg/injection, schedule: Q01DX009 (ip), vehicle: Klucel (hydroxypropylcellulose) (HPC)): 90 % of control

SMILES: COc1cc2c(cc1OC)[C@H]1CNC[C@H]1[C@@H](c1ccccc1)C2
- T/C [6]: 123 % of control
- T/C [7]: 114 % of control

SMILES: Cc1c(N)nc([C@H](CC(N)=O)NC[C@H](N)C(N)=O)nc1C(=O)N[C@H](C(=O)N[C@H](C)[C@@H](O)CC(=O)N[C@H](C(=O)NC(O[C@@H]1O[C@@H](C)[C@@H](N)[C@@H](O)[C@H]1O)C(O)c1nc(-c2nc(C(=O)NCCCCN)cs2)cs1)[C@@H](C)O)[C@@H](O[C@@H]1O[C@@H](CO)[C@@H](O)[C@H](O)[C@@H]1O[C@H]1O[C@H](CO)[C@@H](O)[C@H](OC(N)=O)[C@@H]1O)c1c[nH]cn1 (stereo not given in full)
- T/C (dose: 0.8 mg/kg/injection, schedule: Q01DX009 (ip), vehicle: saline): 152 % of control
- T/C (dose: 1.6 mg/kg/injection, schedule: Q01DX009 (ip), vehicle: saline): 152 % of control
- T/C (dose: 3.2 mg/kg/injection, schedule: Q01DX009 (ip), vehicle: saline): 150 % of control

SMILES: CCCCCCC(=O)CCCC(C)CCCC(C)C (stereo not given)
- T/C [5]: 91 % of control
- T/C (dose: 100.0 mg/kg/injection, schedule: Q04DX003 (ip), vehicle: Klucel (hydroxypropylcellulose) (HPC)): 105 % of control
- T/C [9]: 88 % of control
- T/C (dose: 200.0 mg/kg/injection, schedule: Q04DX003 (ip), vehicle: Klucel (hydroxypropylcellulose) (HPC)): 94 % of control
- T/C (dose: 400.0 mg/kg/injection, schedule: Q04DX003 (ip), vehicle: Klucel (hydroxypropylcellulose) (HPC)): 88 % of control

SMILES: C1CCC2C[N-]CCC2C1.C1CCC2C[N-]CCC2C1.C1CCC2C[N-]CCC2C1.C1CCC2C[N-]CCC2C1.[Cl][Rh][Cl] (stereo not given)
- T/C [11]: 100 % of control
- T/C (dose: 0.5 mg/kg/injection, schedule: Q01DX009 (ip), vehicle: saline with Tween-80): 104 % of control
- T/C [12]: 104 % of control
- T/C (dose: 1.0 mg/kg/injection, schedule: Q01DX009 (ip), vehicle: saline with Tween-80): 95 % of control
- T/C [13]: 115 % of control
- T/C [14]: 92 % of control
- T/C [15]: 123 % of control
- T/C (dose: 4.0 mg/kg/injection, schedule: Q01DX009 (ip), vehicle: saline with Tween-80): 86 % of control
- T/C [16]: 115 % of control
- T/C (dose: 8.0 mg/kg/injection, schedule: Q01DX009 (ip), vehicle: saline): 110 % of control

SMILES: CCCCCCCCCCCC[N+](C)(C)Cc1ccccc1
- T/C [11]: 100 % of control and 110 % of control
- T/C (dose: 0.25 mg/kg/injection, schedule: Q04DX003 (ip), vehicle: saline): 103 % of control
- T/C [12]: 97 % of control and 105 % of control and 107 % of control
- T/C (dose: 0.5 mg/kg/injection, schedule: Q04DX003 (ip), vehicle: saline): 95 % of control and 100 % of control
- T/C [13]: 92 % of control and 104 % of control
- T/C (dose: 1.0 mg/kg/injection, schedule: Q04DX003 (ip), vehicle: saline): 96 % of control
- T/C [14]: 150 % of control
- T/C [15]: 88 % of control and 106 % of control
- T/C (dose: 2.0 mg/kg/injection, schedule: Q04DX003 (ip), vehicle: saline with Tween-80): 158 % of control
- T/C (dose: 2.0 mg/kg/injection, schedule: Q04DX003 (ip), vehicle: saline): 88 % of control
- T/C [16]: 94 % of control and 100 % of control
- T/C (dose: 4.0 mg/kg/injection, schedule: Q04DX003 (ip), vehicle: saline with Tween-80): 177 % of control
- T/C (dose: 4.0 mg/kg/injection, schedule: Q04DX003 (ip), vehicle: saline): 93 % of control

SMILES: O=C(Nc1ccccc1)N(Cc1ccccc1)c1ccccc1
- T/C (dose: 50.0 mg/kg/injection, schedule: Q04DX009 (ip), vehicle: Klucel (hydroxypropylcellulose) (HPC)): 104 % of control
- T/C (dose: 100.0 mg/kg/injection, schedule: Q04DX009 (ip), vehicle: Klucel (hydroxypropylcellulose) (HPC)): 104 % of control
- T/C (dose: 200.0 mg/kg/injection, schedule: Q04DX003 (ip), vehicle: carboxymethylcellulose (CMC)): 105 % of control
- T/C (dose: 200.0 mg/kg/injection, schedule: Q04DX009 (ip), vehicle: Klucel (hydroxypropylcellulose) (HPC)): 93 % of control

SMILES: CCN(CC)c1nc(Cl)nc(NC(C)C)n1
- T/C [1]: 95 % of control
- T/C [2]: 97 % of control
- T/C [10]: 89 % of control

SMILES: COc1ccccc1Oc1ccc(N=Cc2ccc(C)cc2)cc1
- T/C [4]: 102 % of control
- T/C [5]: 86 % of control and 102 % of control
- T/C [9]: 100 % of control and 111 % of control
- T/C (dose: 400.0 mg/kg/injection, schedule: Q01DX009 (ip), vehicle: Klucel (hydroxypropylcellulose) (HPC)): 86 % of control

SMILES: O=[N+]([O-])c1cccc(C(O)C=C(C(F)(F)F)C(F)(F)F)c1 (stereo not given)
- T/C [8]: 93 % of control
- T/C [2]: 86 % of control
